In US11548860B2, “Pharmacophores, compounds and methods having application in the treatment of cancer through inhibition of CYP17A1 and CYP19A1” (MANGOSUTHU UNIVERSITY OF TECHNOLOGY, priority 2015, dated 2023):

Assays:
CYP17A1 [1] = details: actual (literature) activity of training/test set compounds, cited from earlier work; for IC50: unit nM
CYP17A1 [2] = target: CYP17A1 (Homo sapiens (Human), UniProt P05093); assay: CYP17A1 inhibition, CYP17A1 bactosomes, progesterone substrate, LC-MS/MS; type: biochemical; details: Table 2
Description: CYP17A1 inhibition was measured using 20 pmol/ml CYP17A1 bactosomes (Cypex, Dundee, UK) and 0.1 μM progesterone as a substrate and 1 mM NADPH in 50 mM potassium phosphate buffer pH 7.4 containing 5 mM magnesium chloride. Inhibitors were dissolved in DMSO and serially diluted in seven ½ log steps, final concentrations ranging from 50 μA to 50 nM. Reaction volume was 100 μl and final DMSO concentration was 1% (v/v). Reactions were started by the addition of NADPH and incubated at 37° C. for 20 minutes with shaking at 1800 rpm on a Bioshake IQ (Q-Instruments, Jena, Germany). Reactions were terminated by the addition of 200 μl methanol containing 1 μM tolbutamide as an internal standard.

[3] = Toxicity studies on the molecules in Table 2
Solubility in DMSO = type: physicochemical
[4] = test system: CYP1A2, CYP2C9, CYP2C19, CYP2D6, and CYP3A4; assay: Summary of inhibition of metabolic CYP450 isoforms (5 CYP panel); type: in vitro ADME, human; details: Table 2
CYP19A1 = CYP19A1 (Homo sapiens (Human), UniProt P11511); assay: CYP19A1 inhibition, CYP19/MFC High Throughput Inhibitor Screen Kit, fluorescence; type: biochemical; details: Table 2
Description: Test compounds and control inhibitors were prepared as stocks in either Acetonitrile or DMSO from the solid compound. Compounds were serially diluted in ½ log steps in the same solvent. CYP19A1 inhibition experiments were performed using the CYP19/MFC High Throughput Inhibitor Screen Kit (Corning). Test compounds were tested in seven concentrations: […] CYP19A1 reactions were performed in black 96 well-plates (Greiner) according to the manufacturer's instructions. […] Final organic solvent concentrations were either 4% (v/v) acetonitrile or 0.5% (v/v) Dimethyl sulfoxide. The plates were covered with self-adhesive film lids and incubated for 10 minutes at 37° C. Reactions were terminated by the addition of 75 μl Stop Solution (100 mM Tris base in acetonitrile: MilliQ water (80:20). […] The CYP activities for each test compound/positive control inhibitor at each concentration were converted to % of control activity (CA). The LC-MS/MS peak responses (CYP metabolite peak area/internal standard peak area) for each test compound or positive control inhibitor were used and the response for each sample was expressed as a percentage of an uninhibited control (DMSO incubation).

Sequence of CYP17A1 (Homo sapiens (Human), UniProt P05093) (P05093 whole entry): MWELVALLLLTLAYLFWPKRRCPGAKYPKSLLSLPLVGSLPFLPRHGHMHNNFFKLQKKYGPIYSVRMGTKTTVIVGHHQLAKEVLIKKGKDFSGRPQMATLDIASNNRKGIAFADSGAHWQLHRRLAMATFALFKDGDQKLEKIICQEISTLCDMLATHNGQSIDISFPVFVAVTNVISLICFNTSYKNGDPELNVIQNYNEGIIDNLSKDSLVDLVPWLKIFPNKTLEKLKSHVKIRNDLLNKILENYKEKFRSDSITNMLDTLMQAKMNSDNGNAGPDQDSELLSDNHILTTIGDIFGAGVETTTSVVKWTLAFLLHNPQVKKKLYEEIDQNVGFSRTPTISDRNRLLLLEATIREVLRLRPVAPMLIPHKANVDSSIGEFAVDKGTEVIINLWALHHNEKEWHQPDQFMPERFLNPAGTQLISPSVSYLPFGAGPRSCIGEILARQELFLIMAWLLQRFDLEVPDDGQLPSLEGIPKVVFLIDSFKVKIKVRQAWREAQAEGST
Sequence of CYP19A1 (P11511 whole entry): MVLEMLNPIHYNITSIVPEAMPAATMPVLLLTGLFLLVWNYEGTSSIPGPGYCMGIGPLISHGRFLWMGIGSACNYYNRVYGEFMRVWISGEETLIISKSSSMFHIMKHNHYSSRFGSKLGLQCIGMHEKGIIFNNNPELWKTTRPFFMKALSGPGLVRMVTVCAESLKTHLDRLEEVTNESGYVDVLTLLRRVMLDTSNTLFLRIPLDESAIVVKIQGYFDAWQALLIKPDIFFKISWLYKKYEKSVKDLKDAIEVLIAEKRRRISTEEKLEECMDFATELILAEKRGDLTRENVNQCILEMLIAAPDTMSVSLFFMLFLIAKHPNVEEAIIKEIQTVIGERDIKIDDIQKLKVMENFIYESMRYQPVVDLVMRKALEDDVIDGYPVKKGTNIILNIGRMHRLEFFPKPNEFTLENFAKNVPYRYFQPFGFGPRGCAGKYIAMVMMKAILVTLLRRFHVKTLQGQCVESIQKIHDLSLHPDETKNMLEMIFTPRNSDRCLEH

| Structure (SMILES) | pIC50 (CYP17A1 [1]) | IC50 (CYP17A1 [1]) | other results |
| --- | --- | --- | --- |
| NC(=O)c1ccc2cc(C3(O)CCn4cncc43)ccc2c1 (racemic) [3b [11]] | 7.540 | 29 nM |  |
| CNC(=O)c1ccc2cc(C3CCn4cncc43)ccc2c1 (racemic) [3d [11]] | 7.890 | 13 nM |  |
| c1ccc(-c2ccc3c(c2)CCC3n2ccnc2)cc1 (racemic) [5ay [7]] | 6.620 | 240 nM |  |
| O=C(NC1CC1)c1ccc2cc(C3(O)CCn4cncc43)ccc2c1 (racemic) [5bx [7]] | 6.600 | 250 nM |  |
| CC(C)C(O)(c1ccc(-c2ccccc2)cc1)c1c[nH]cn1 (racemic) [7 [12]] | 7.480 | 33 nM |  |
| COc1ccc(-c2ccc(C(O)(c3c[nH]cn3)C(C)C)cc2)cc1 (racemic) [8 [12]] | 7.270 | 54 nM |  |
| CC(c1ccc(-c2ccsc2)cc1)n1ccnc1 (racemic) [12 [9]] | 6.050 | 876 nM |  |
| CC(C)C(O)(c1cccc(-c2ccc(F)cc2)c1)c1c[nH]cn1 (racemic) [13 [12]] | 7.720 | 19 nM |  |
| CC(C)C(O)(c1ccc(-c2ccc(F)cc2)cc1)c1c[nH]cn1 (racemic) [15 [12]] | 7.570 | 27 nM |  |
| COc1ccc(-c2ccc3c(c2)CCCC3(O)c2ccncc2)cc1F (racemic) [16 [9]] | 5.480 | 3340 nM |  |
| CC(C)C(O)(c1ccc(-c2ccc(Cl)cc2)cc1)c1c[nH]cn1 (racemic) [16 [12]] | 7.550 | 28 nM |  |
| CCNC(=O)c1ccc2cc(C3(O)CCn4cncc43)ccc2c1 (racemic) [25 [2]] | 6.730 | 186 nM |  |
| CC(=O)Nc1cccc(-c2ccc(C(C)(O)c3c[nH]cn3)cc2)c1 (racemic) [32 [12]] | 7.420 | 38 nM |  |
| CCC(O)(c1ccc(-c2cccc(NC(C)=O)c2)cc1)c1c[nH]cn1 (racemic) [33 [12]] | 7.400 | 40 nM |  |
| CC(=O)Nc1cccc(-c2ccc(C(O)(c3c[nH]cn3)C3CC3)cc2)c1 (racemic) [34 [12]] | 7.350 | 45 nM |  |
| CNC(=O)c1ccc2cc(C(O)(c3cnc[nH]3)C(C)C)ccc2c1 (centres unmarked) [1 [11]] | 7.800 | 16 nM |  |
| Brc1ccc(Cc2ccncc2)cc1 [3g [11]] | 6.400 | 400 nM |  |
| Oc1cccc(-c2ccc(Cc3ccncc3)cc2)c1 [3i [11]] | 7.060 | 88 nM |  |
| CC(c1ccc(-c2ccc(F)cc2)cc1)n1ccnc1 (centres unmarked) [4 [9], 4-fluoro-4-[1-(1H-imidazolyl)ethyl]biphenyl] | 6.610 | 248 nM |  |
| Oc1ccc(-c2ccc(Cc3ccncc3)cc2)cc1F [5ax [7]] | 6.770 | 170 nM |  |
| Oc1ccc(-c2ccc(Cc3ccncc3)cc2)cc1O [9 [9]] | 7.280 | 52 nM |  |

| Structure (SMILES) | pIC50 (CYP17A1 [1]) | IC50 (CYP17A1 [1]) | other results |
| --- | --- | --- | --- |
| COc1ccc(-c2ccc(Cc3ccncc3)cc2)cc1OC [9a [9]] | 7.280 | 52 nM |  |
| CC(C)=C(c1ccncc1)c1ccc(-c2cccc(O)c2)cc1 [13 [2]] | 7.250 | 56 nM |  |
| COc1ccc2cc(-c3ccc(Cc4ccncc4)cc3)ccc2c1 [13 [9]] | 5.750 | 1790 nM |  |
| CC(C)C(O)(c1cccc(-c2ccc(Cl)cc2)c1)c1c[nH]cn1 (centres unmarked) [14 [12]] | 7.310 | 49 nM |  |
| CC(C)=C(c1ccncc1)c1ccc(-c2ccc(O)c(F)c2)cc1 [15 [2]] | 7.120 | 75 nM |  |
| Cl.Fc1ccc(-c2ccc3c(c2)CCC3c2cccnc2)cc1 (centres unmarked) [15 [13]] | 4.700 | 20000 nM |  |
| CC(C)=C(c1ccncc1)c1ccc(-c2ccc(O)c(O)c2)cc1 [16 [2]] | 7.430 | 37 nM |  |
| CC(=O)Nc1cccc(-c2ccc(C(O)(c3c[nH]cn3)C(C)C)cc2)c1 (centres unmarked) [17 [12]] | 7.620 | 24 nM |  |
| Br.Oc1ccc(-c2ccc3c(c2)CCCC3c2ccncc2)cc1F (centres unmarked) [20 [13]] | 7.190 | 64 nM |  |
| CC(C)=C(c1ccncc1)c1ccc(-c2ccc(N)c(N)c2)cc1 [22 [2]] | 7.120 | 75 nM |  |
| CNC(=O)c1cccc(-c2ccc(C(O)(c3c[nH]cn3)C(C)C)cc2)c1 (centres unmarked) [22 [12]] | 7.360 | 44 nM |  |
| CNC(=O)Nc1cccc(-c2ccc(C(O)(c3c[nH]cn3)C(C)C)cc2)c1 (centres unmarked) [24 [12]] | 7.680 | 21 nM |  |
| CC(=O)Nc1cccc(-c2ccc(C(O)(c3c[nH]cn3)C(C)C)cc2)n1 (centres unmarked) [26 [12]] | 7.440 | 36 nM |  |
| Oc1ccc(-c2ccc(Cc3ccncc3)cc2)cc1 [30 [10]] | 6.630 | 236 nM |  |
| CCc1ccc(NC(=O)c2cc(C(=O)c3cc(OC)ccc3O)coc2=N)cc1 [Compound 1, N-(4-ethylphenyl)-5-(2-hydroxy-5-methoxybenzoyl)-2-imino-2H-pyran-3-carboxamide] |  |  | inhibitory potency of CYP17A1, level in words (CYP17A1 [2]): micromolar levels; safety profile [3]: reasonably good safety profiles; Soluble in DMSO (Solubility in DMSO): Yes; inhibition of various CYP450 isoforms (drug-drug interaction) [4]: inhibit various CYP450 isoforms |
| O=C(CSc1nnc(-c2c[nH]c3ccccc23)n1Cc1ccco1)NCc1ccccc1Cl [Compound 2, N-[(2-chlorophenyl)methyl]-2-({4-[(furan-2-yl)methyl]-5-(1H-indol-3-yl)-4H-1,2,4-triazol-3-yl}sulfanyl)acetamide] |  |  | inhibitory potency of CYP17A1, level in words (CYP17A1 [2]): micromolar levels; safety profile [3]: reasonably good safety profiles; Soluble in DMSO (Solubility in DMSO): Yes; inhibition of various CYP450 isoforms (drug-drug interaction) [4]: inhibit various CYP450 isoforms |
| COC(C)C(=O)Nc1cccc(NC(C(N)=O)c2ccccc2)c1 (centres unmarked) [Compound 5, N-(3-{[carbamoyl(phenyl)methyl]amino}phenyl)-2-methoxypropanamide] |  |  | safety profile [3]: excellent safety profiles; Soluble in DMSO (Solubility in DMSO): Yes |
| O=C1COc2cc(NCc3cccc(C(=O)Nc4cccnc4)c3)c(O)cc2N1 [Compound 8, 3-{[(6-hydroxy-3-oxo-3,4-dihydro-2H-1,4-benzoxazin-7-yl)amino]methyl}-N-(pyridin-3-yl)benzamide] |  |  | safety profile [3]: excellent safety profiles; Soluble in DMSO (Solubility in DMSO): Yes; IC50 values against CYP19A1, potency level in words (CYP19A1): sub-micromolar inhibitory potency levels |
| O=C(Nc1ccccc1O)c1ccc(Oc2cccc(C(=O)Nc3ccccc3O)c2)cc1 [Compound 9, N-(2-hydroxyphenyl)-4-{3-[(2-hydroxyphenyl)carbamoyl]phenoxyl}benzamide] |  |  | inhibitory potency of CYP17A1, level in words (CYP17A1 [2]): micromolar levels; safety profile [3]: excellent safety profiles; Soluble in DMSO (Solubility in DMSO): Yes |
| O=C1COc2cc(NCc3cccc(C(=O)Nc4ccccc4O)c3)ccc2N1 [Compound 11, N-(2-hydroxyphenyl)-3-{[(3-oxo-3,4-dihydro-2H-1,4-benzoxazin-7-yl)amino]methyl}benzamide] |  |  | safety profile [3]: reasonably good safety profiles; Soluble in DMSO (Solubility in DMSO): Yes; IC50 values against CYP19A1, potency level in words (CYP19A1): sub-micromolar inhibitory potency levels; inhibition of various CYP450 isoforms (drug-drug interaction) [4]: inhibit various CYP450 isoforms |
| CNC(=O)c1ccc2cc([C@@]3(O)CCn4cncc43)ccc2c1 [TAK700] | 7.550 | 28 nM |  |
